# pIC50: −log10 of the molar value. Entries after “also recorded” stand apart in the source; their conditions may differ.
# Key:
# [1] = Aqueous (kinetic) solubility by UHPLC; assay type: physicochemical; conditions: 25 °C, aqueous buffer, kinetic from dmso stock, PBS pH 7.4, UHPLC
# Experimental: As previously described.(27) […]
# samples were prepared by adding 5 µL stock to PBS pH 7.4 (195 µL). This solution was mixed […]
# The solubility test samples were […]
# vacuum ﬁ ltered (Millipore Multiscreen HTS ﬁ lter, 96-well format) to remove any undissolved […]
# material. The ﬁ ltrate was analyzed for dissolved drug compound using a truncated UHPLC […]
# methodology. A calibration solution was prepared for each test compound. The 10 mM stock […]
# solution was diluted in DMSO to give a 500 µM solution. This was further diluted with 50:50 […]
# acetonitrile:water to give a 50 µM solution. Aliquots (0.2, 2.0, and 5.0 µL) of this 50 µM solution were injected onto the UHPLC system, and the areas of the resultant peaks were […]
# integrated to produce a calibration line. Aliquots of the test sample ﬁ ltrate (0.4 and 5.0 µL) […]
# were injected onto the UHPLC system and the resultant test compound peak areas quantiﬁ ed […]
# using the calibration line. […]
# wild type C. parvum = assay: NOD SCID Gamma mouse efficacy model; assay type: in vivo; conditions: for parasite shedding once treatment finished (day 14 PI) / recrudescence (day 21 PI): 10 mg/kg BID oral 7 days; for log reduction in parasite shedding / parasite reduction: 10 mg/kg twice a day oral 7 days; for minimum efficacious dose (MED): BID oral 7 days, reduces parasite burden and prevents recrudescence
# Experimental: An immunocompromised mouse model of cryptosporidiosis (Fig. 1C) was selected to examine the effect of each of the fourteen tool compounds on parasite reduction in vivo. […] Treatment started on day 7 post infection (PI) and concluded on day 13 PI. Infection was determined by measuring the number of parasites shed in the fecal material by quantitative PCR (oocysts/g). Efficacy was determined by calculating the log reduction in the number of oocysts shed by treated animals after completion of compound dosing (day 14) relative to the initial parasite burden in the same group of animals before treatment began (day 7 PI). Hypothesized compound absorption by BCS class is illustrated in Fig. S3. […] No Class I or Class IV compound achieved a log reduction above 2.0 (99% parasite reduction).
# Efficacy of tool compounds in the NOD SCID Gamma mouse model was assessed as previously described.([14]) Male mice aged 3-5 weeks old were used, 4 mice per group (NOD.Cg-Prkdc^scid Il2rgtm1Wjl/SzJ; purchased from Jackson Labs). Mice were infected via gavage (100,000 wild type Iowa strain C. parvum oocysts from Bunchgrass Farms). Compounds were prepared fresh daily in HPMC with DMSO (0.5% hydroxypropylmethylcellulose, 0.4% Tween 80 and 0.5% Benzyl alcohol (v/v) plus 5% DMSO) and were administered by oral gavage at the concentration indicated starting 7 days post infection. Paromomycin served as the positive control (administered at 2000 mg/kg). Fecal samples were collected on days indicated. Oocyst shedding in feces was measured using a previously validated qPCR assay.([28])
# [2] = test system: transgenic C. parvum that express NanoLuciferase; assay: NOD SCID Gamma chronic mouse efficacy model; assay type: in vivo; conditions: 50 mg/kg BID oral 7 days from day 36 PI
# Experimental: We next developed a mouse efficacy model that mimics chronic infection. In this model, NOD SCID Gamma mice were allowed to become highly infected (>10^9 RLU) and maintain this for a minimum of one week before compound treatment was administered (Fig. 4C). To achieve efficacy against this chronic infection, compounds must kill more parasites, offering a more rigorous method for assessing suitability for progression.
# Male NOD SCID Gamma mice (NOD.Cg-Prkdc^scid Il2rgtm1Wjl/SzJ; purchased from Charles Rivers) aged 10 weeks old were used (n = 4 mice per experimental group). Mice were infected by oral gavage (5,000 oocysts of Δtk::mNeon-Neo^R). Oocyst shedding in feces was determined by NanoLuciferase assay as described above. Once infection became chronic (at least 1 week of fecal RLUs/g at >10^9), compounds were administered. DDD489 was prepared in HPMC without DMSO and administered by oral gavage at 50 mg/kg starting day 36 post infection. Early lead compound DDD706 served as the positive control (administered at 20 mg/kg QD). Fecal samples were pooled from all mice in the cage on days indicated.
# Dog pharmacokinetics = assay type: in vivo
# Experimental: Dog pharmacokinetics (WuXi App Tec)
# As for mouse except using male beagle dogs (IV dose volume: 3 mg/mL; dose vehicle: 10% DMSO, 40% PEG400, 50% (40%HP-β-CD in water); PO dose volume: 2 mg/mL; dose vehicle: 1% CMC-Na(800-1200)+0.2% Tween 80 in water). Pharmacokinetic parameters were derived from the blood concentration-time curve using WinNonLin Professional Software v 6.3 (Pharsight Corporation). […]
# CHIlogD = assay type: physicochemical; conditions: pH 7.4
# [3] = Plasma protein binding, dog; assay type: in vitro ADME; conditions: read-out: PPB (d) (converted)
# 5-HT transporter (h) = molecular target: T1, 5-HT transporter (h) (Homo sapiens, UniProt P31645); assay: SafetyScreen44 panel: 5-HT transporter; assay type: binding
# T1 construct: Eurofins Cerep
# T1 sequence (P31645 whole entry): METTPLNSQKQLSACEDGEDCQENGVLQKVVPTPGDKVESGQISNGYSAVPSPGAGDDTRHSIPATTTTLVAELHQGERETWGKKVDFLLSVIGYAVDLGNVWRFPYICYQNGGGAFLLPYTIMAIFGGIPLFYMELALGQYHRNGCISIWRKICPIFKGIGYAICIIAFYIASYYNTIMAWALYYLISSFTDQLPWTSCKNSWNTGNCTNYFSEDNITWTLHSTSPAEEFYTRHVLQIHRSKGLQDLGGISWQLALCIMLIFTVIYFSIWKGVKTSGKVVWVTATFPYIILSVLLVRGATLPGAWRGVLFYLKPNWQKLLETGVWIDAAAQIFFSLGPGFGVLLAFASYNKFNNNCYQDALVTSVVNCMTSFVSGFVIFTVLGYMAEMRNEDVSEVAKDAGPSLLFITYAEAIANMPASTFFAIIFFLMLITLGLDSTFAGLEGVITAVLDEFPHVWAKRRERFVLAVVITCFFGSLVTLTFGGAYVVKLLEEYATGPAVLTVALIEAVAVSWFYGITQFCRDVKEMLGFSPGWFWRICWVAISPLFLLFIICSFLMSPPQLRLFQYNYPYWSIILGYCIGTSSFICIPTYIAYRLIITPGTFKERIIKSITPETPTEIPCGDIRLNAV
# Text: As previously described.(31)
# Table S2. ADME properties and in vitro assessment of toxicity/off-target effects for DDD489 and […]
# Data are from a single biological replicate. (A) In vitro ADME properties. FaSSIF is Fasted State Simulated Intestinal Fluid Solubility. MDCK-MDR1 is a Madin-Darby canine kidney cell line transfected with the MDR1 gene, encoding for the efflux protein, P-glycoprotein (P-gp). Papp is apparent permeability, measured in the presence of P-gp inhibitor, GF120918. Efflux ratio is calculated as the ratio of Papp B-A/A-B. CHIlogD is chromatographic hydrophobicity index logD, measured at pH 7.4. clogP is calculated logP, determined by […]
# Heps Cli is liver hepatocyte intrinsic clearance,
# PPB is plasma protein binding.
# Data quoted is percent bound. M=mouse, r=rat, d=dog, b=bovine, h=human. (B) In vitro toxicity assays. Cyp450
# IC50 is cytochrome p450 enzyme inhibition. Mini-Ames was conducted in the presence and absence of S9 mix in four strains of Salmonella typhimurium. hERG IC50 is human ether-a-go-go related gene inhibition, measured using manual patch-clamp technique. (C) Mitochondrial toxicity assay data. (D) In a safety p anel of receptors and […]
# CpKRS = CpKRS (Cryptosporidium parvum, UniProt Q5CR27); assay: CpKRS in vitro enzyme assay
# Chain of CpKRS (Q5CR27 entry or part of it): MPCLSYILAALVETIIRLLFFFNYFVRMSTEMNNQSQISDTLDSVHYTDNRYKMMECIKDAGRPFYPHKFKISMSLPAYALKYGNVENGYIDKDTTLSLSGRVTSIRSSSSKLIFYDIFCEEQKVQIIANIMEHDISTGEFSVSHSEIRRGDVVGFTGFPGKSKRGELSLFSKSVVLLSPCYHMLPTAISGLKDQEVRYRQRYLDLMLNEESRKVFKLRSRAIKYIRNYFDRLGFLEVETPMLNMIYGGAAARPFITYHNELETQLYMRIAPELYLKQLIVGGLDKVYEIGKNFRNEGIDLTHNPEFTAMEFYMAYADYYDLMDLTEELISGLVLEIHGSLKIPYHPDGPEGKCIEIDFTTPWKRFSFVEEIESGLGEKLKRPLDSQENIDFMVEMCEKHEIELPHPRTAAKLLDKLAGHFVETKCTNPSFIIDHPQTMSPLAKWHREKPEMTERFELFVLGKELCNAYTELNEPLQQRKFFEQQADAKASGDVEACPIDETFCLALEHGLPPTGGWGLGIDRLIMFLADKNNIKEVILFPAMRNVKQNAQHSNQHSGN
# Experimental: CpKRS in vitro enzyme assay (Dundee)
# Potency of compounds was determined in 10-point dose-response inhibition curves.
# Echo 550 acoustic dispenser (Labcyte). KRS reactions were started by adding enzyme into wells containing substrate and compounds using a Thermo Scientiﬁ c Matrix Wellmate. KRS assays were run in 50 µL reactions (Final concentration: 100 mM HEPES*K pH 7.4, 20 mM
# Pyrophosphatase) at room temperature for 7 h. Reactions were stopped by the addition of Biomol green (50 µL: Enzo Life Sciences) with the amount of free phosphate detected by
# Samples were all run in duplicate and data was processed and analyzed using ActivityBase
# [4] = male, beagle, whole blood, dog PO 10 mg/kg
Compound,solubility at 24 h [1] [µM],parasite shedding once treatment finished (day 14 PI) (wild type C. parvum),recrudescence (day 21 PI) (wild type C. parvum),log reduction in parasite shedding (wild type C. parvum) [log],parasite reduction (wild type C. parvum) [%],minimum efficacious dose (MED) (wild type C. parvum) [mg/kg],chromatographic logD (CHIlogD),fraction unbound [3],pIC50 (CpKRS),further results
Nc1nc2c(c(C(F)(F)F)n1)C(=O)N(CC1CCCC(C(F)(F)F)C1)C2 (stereo not drawn) [DDD489],21,reduces parasite shedding to the level of detection,unable to prevent recrudescence; also recorded: does not prevent recrudescence,> 2.8,> 99.8,30,2.8,0.3,6.07,"recrudescence at day 21 PI (wild type C. parvum; 50 mg/kg BID oral 7 days): prevents; parasite shedding by end of treatment period [2]: reduce parasite shedding below the LOQ; recrudescence [2]: failed to prevent recrudescence; CLB (Dog pharmacokinetics; dog IV 3 mg/kg, clearance in blood): 52 mL/min/kg; half-life (Dog pharmacokinetics; male, beagle, whole blood, 3 mg/kg, dog, IV, read-out: T½ (converted)): 1.7 h; Vd (Dog pharmacokinetics; male, beagle, whole blood, 3 mg/kg, dog, IV, read-out: Vdss): 4.2 L/kg; AUC (Dog pharmacokinetics; male, beagle, whole blood, dog IV 3 mg/kg): 1000 ng·h/mL; AUC (Dog pharmacokinetics; [4]): 667 ng·h/mL; Cmax (Dog pharmacokinetics; [4]): 200 ng/mL; Tmax (Dog pharmacokinetics; [4]): 1.2 h; bioavailability (Dog pharmacokinetics; male, beagle, whole blood, dog PO 10 mg/kg, read-out: F (oral bioavailability)): 18%; inhibition at 10 µM (5-HT transporter (h)): 62%"
O=C(NCC1(O)CCCCC1)c1cc(=O)c2cc(O)ccc2o1 [DDD508],184,parasite shedding to the level of detection,unable to prevent recrudescence,> 2.8,> 99.8,30,1,0.52,5.77,–

# — publication PMC7617456, “Cryptosporidium lysyl-tRNA synthetase inhibitors define the interplay between solubility and permeability required to achieve efficacy” (Science translational medicine, 2024)
